# Data: patent US12350259B2, “Methods of treating migraine” (Allergan Pharmaceuticals International Limited, priority 2021, dated 2025)
# Several values for one entry are separate records, joined by “and”; a condition that tells them apart may be missing. Identical values can stand only once. Like-named read-outs stand apart in the source and are kept apart here.
# Tests used:
# [1] = molecular target: BCRP (Homo sapiens, UniProt Q9UNQ0); experiment: Transporter inhibition; type: in vitro ADME; conditions: clinically relevant concentrations
# [2] = molecular target: CYP3A4 (Homo sapiens, UniProt P08684); experiment: Elimination by metabolism; type: in vitro ADME
# [3] = molecular target: CYP2C9 (Homo sapiens, UniProt P11712); experiment: In vitro CYP inhibition; type: in vitro ADME; conditions: clinically relevant concentrations
# [4] = molecular target: OATP1B1 (Homo sapiens, UniProt Q9Y6L6); experiment: Transporter inhibition; type: in vitro ADME
# [5] = molecular target: NTCP (Homo sapiens, UniProt Q14973); experiment: Transporter inhibition; type: in vitro ADME; conditions: clinically relevant concentrations
# [6] = Atogepant-rifampin drug interaction study: atogepant plasma PK; type: in vivo, human; conditions: for Tmax: read-out: Tmax (median); for Vd/F: read-out: Vz/F
# Experimental: The study consisted of a Screening Visit, two study periods, an end-of-treatment (EOT) visit, and a follow-up visit. […] [table] […] Relative to the time that atogepant was administered, blood samples for atogepant plasma PK were to be collected at the following times: • Days 1 and 12: 0 hour (predose) and at 0.5, 1, 1.5, 2, 3, 4, 6, 8, 12, 16, 24, 36, and 48 hours post dose. • Day 7: 0 hour (predose) and at 0.5, 1, 1.5, 2, 3, 4, 6, 8, 12, 16, and 24 hours postdose
# [7] = tested on: patients with episodic migraine; experiment: Study 2 (NCT02848326): preventive treatment of episodic migraine, efficacy; type: in vivo, human
# Experimental: The studies enrolled patients with at least a 1-year history of migraine with or without aura, according to the International Classification of Headache Disorders (ICHD-3) diagnostic criteria. In Study 1 (NCT03777059), 910 patients were randomized 1:1:1:1 to receive atogepant 10 mg (N=222), atogepant 30 mg (N=230), atogepant 60 mg (N=235), or placebo (N=223), once daily for 12 weeks. In Study 2 (NCT02848326), 652 patients were randomized 1:2:2:2 to receive atogepant 10 mg (N=94), atogepant 30 mg (N=185), atogepant 60 mg (N=187), or placebo (N=186), once daily for 12 weeks. In both studies, patients were allowed to use acute headache treatments (i.e., triptans, ergotamine derivatives, NSAIDs, acetaminophen, and opioids) as needed. The use of a concomitant medication that acts on the CGRP pathway was not permitted for either acute or preventive treatment of migraine. The studies excluded patients with myocardial infarction, stroke, or transient ischemic attacks within six months prior to screening. The primary efficacy endpoint was the change from baseline in mean monthly migraine days across the 12-week treatment period.
# [8] = Clinical pharmacokinetics of atogepant after oral administration (summary); type: in vivo, human
# [9] = molecular target: OCT1 (Homo sapiens, UniProt O15245); experiment: Transporter inhibition; type: in vitro ADME
# [10] = Treatment A: atogepant 60 mg alone
# [11] = Treatment B1 (single-dose rifampin) / Treatment A
# [12] = Treatment B2 (multi-dose rifampin) / Treatment A
# [13] = Treatment B2: atogepant 60 mg + multiple-dose rifampin 600 mg
# [14] = atogepant 60 mg + multiple-dose rifampin 600 mg (strong CYP3A4 inducer) vs atogepant alone
# [15] = atogepant 60 mg + single-dose rifampin 600 mg (OATP inhibitor) vs atogepant alone
# [16] = both sexes, human, plasma, oral, 60 mg, Treatment A: atogepant 60 mg alone
# [17] = both sexes, human, plasma, oral, Treatment B2: atogepant 60 mg + multiple-dose rifampin 600 mg
# [18] = Study 2, atogepant 10 mg once daily
# [19] = Study 2, atogepant 30 mg once daily
# [20] = Study 2, atogepant 60 mg once daily
# Chain of OATP1B1 (Q9Y6L6 whole entry): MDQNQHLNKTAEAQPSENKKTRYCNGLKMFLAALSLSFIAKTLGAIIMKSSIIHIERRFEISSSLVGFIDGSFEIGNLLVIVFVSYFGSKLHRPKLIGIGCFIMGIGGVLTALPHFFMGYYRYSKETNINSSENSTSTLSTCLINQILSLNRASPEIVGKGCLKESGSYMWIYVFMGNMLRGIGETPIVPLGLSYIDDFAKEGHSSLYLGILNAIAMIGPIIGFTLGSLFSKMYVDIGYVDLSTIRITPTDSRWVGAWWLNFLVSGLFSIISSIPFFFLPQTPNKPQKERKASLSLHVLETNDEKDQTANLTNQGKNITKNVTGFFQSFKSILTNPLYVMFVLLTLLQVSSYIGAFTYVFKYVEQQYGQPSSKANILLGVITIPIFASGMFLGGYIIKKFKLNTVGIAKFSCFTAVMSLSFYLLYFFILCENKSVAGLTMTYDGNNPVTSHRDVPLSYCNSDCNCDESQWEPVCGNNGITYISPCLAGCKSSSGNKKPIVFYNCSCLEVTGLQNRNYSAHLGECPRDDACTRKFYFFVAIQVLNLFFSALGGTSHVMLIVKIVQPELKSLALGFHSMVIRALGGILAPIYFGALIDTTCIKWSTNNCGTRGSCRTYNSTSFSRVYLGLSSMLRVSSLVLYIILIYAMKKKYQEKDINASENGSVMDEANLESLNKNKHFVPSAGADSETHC
# Chain of CYP3A4 (P08684 whole entry): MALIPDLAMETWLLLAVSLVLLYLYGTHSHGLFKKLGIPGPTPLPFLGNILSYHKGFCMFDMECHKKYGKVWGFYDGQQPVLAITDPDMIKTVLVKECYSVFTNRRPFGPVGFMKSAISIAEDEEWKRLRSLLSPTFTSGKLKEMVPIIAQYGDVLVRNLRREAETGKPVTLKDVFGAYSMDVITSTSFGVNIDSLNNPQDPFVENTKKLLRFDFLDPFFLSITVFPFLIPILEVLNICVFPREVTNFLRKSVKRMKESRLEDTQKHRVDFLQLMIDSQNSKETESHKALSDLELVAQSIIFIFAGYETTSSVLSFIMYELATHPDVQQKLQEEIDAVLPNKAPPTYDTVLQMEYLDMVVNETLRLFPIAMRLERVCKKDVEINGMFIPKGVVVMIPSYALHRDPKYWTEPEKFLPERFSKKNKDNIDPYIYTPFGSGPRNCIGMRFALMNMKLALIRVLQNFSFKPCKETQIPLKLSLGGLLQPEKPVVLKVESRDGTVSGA
# Chain of NTCP (Q14973 whole entry): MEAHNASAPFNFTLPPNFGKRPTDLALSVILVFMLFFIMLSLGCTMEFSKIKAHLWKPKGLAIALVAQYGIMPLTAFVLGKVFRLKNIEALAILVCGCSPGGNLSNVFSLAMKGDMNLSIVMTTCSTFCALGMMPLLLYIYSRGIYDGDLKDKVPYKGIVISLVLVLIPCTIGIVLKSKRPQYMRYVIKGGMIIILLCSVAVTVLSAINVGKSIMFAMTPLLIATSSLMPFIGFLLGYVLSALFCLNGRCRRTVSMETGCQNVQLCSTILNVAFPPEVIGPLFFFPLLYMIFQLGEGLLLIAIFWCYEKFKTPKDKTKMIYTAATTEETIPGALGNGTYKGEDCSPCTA
# Chain of CYP2C9 (P11712 whole entry): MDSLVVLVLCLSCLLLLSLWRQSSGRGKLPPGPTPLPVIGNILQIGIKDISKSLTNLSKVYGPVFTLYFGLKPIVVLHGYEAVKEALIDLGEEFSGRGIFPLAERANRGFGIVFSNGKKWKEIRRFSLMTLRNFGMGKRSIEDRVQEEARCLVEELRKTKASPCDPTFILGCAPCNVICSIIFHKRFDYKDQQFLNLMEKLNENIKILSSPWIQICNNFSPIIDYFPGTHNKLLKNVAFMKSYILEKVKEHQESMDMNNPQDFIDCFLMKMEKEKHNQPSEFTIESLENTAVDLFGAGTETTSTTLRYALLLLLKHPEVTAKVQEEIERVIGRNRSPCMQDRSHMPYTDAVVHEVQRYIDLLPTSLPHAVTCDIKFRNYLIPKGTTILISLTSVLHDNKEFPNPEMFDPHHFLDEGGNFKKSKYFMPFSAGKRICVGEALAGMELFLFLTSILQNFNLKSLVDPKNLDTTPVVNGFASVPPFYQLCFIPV
# Chain of BCRP (Q9UNQ0 whole entry): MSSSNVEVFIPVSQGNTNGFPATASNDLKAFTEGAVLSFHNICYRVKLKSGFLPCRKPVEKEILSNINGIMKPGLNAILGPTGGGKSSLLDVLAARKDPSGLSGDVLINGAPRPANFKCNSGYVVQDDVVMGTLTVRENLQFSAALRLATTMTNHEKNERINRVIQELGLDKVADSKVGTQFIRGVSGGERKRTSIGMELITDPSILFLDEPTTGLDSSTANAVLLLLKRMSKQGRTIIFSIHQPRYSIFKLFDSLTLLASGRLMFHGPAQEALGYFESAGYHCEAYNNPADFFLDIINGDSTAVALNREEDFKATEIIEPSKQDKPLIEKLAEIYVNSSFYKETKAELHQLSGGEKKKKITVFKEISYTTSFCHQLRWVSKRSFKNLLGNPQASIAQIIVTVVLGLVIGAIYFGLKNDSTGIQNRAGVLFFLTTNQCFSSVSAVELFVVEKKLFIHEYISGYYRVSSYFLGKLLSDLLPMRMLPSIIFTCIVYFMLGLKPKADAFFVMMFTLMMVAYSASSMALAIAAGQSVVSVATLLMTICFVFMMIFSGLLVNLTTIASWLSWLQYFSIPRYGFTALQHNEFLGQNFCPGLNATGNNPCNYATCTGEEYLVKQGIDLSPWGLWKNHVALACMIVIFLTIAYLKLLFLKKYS
# Chain of OCT1 (O15245 whole entry): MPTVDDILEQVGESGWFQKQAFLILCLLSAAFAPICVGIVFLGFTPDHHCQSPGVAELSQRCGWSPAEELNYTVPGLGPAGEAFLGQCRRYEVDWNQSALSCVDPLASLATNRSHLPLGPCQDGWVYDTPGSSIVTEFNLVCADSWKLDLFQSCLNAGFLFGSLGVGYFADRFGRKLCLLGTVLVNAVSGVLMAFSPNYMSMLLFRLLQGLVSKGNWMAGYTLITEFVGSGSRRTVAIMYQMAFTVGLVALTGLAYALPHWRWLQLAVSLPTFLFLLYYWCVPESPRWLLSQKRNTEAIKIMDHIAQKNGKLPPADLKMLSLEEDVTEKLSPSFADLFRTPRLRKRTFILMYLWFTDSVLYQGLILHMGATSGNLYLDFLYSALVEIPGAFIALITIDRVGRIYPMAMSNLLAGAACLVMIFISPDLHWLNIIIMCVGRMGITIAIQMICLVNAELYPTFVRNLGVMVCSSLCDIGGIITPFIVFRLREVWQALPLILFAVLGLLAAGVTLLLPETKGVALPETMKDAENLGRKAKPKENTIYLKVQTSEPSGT
smiles,measurement,setting,value
"C[C@@H]1[C@H](c2c(F)ccc(F)c2F)C[C@H](NC(=O)c2cnc3c(c2)C[C@@]2(C3)C(=O)Nc3ncccc32)C(=O)N1CC(F)(F)F [atogepant, (3′S)-N-[(3S,5S,6R)-6-methyl-2-oxo-1-(2,2,2-trifluoroethyl)-5-(2,3,6-trifluorophenyl)piperidin-3-yl]-2′-oxo-1′,2′,5,7-tetrahydrospiro[cyclopenta[b]pyridine-6,3′-pyrrolo[2,3-b]pyridine]-3-carboxamide]",inhibition of BCRP,[1],not an inhibitor
same,route of elimination (metabolism),[2],primarily by CYP3A4
same,inhibition of CYP2C9,[3],not an inhibitor
same,inhibition of OATP1B1,[4],weak inhibitor
same,inhibition of NTCP,[5],not an inhibitor
same,CL/F,[6]; [10],22.8 L/h
same,λz,[6]; [10],0.0778 h⁻¹
same,AUC0-24 Ratio of Geometric Means Test/Ref,[6]; [11],284.84%
same,Cmax Ratio of Geometric Means Test/Ref,[6]; [11],222.65%
same,AUC0-t Ratio of Geometric Means Test/Ref,[6]; [12],40.46%
same,AUC0-∞ Ratio of Geometric Means Test/Ref,[6]; [12],38.85%
same,Cmax Ratio of Geometric Means Test/Ref,[6]; [12],70.06%
same,CL/F,[6]; [13],58.3 L/h and 58.3^b L/h
same,λz,[6]; [13],0.325^b 1/h
same,reduction of atogepant AUC0-t (AUC),[6]; [14],60%
same,reduction of atogepant Cmax,[6]; [14],30%
same,reduction of atogepant AUC0-∞,[6]; atogepant 60 mg + multiple-dose rifampin 600 mg vs atogepant alone,61%
same,increase in atogepant AUC0-24,[6]; [15],2.85 fold
same,increase in atogepant Cmax,[6]; [15],2.23 fold
same,half-life,[6]; [16],11.4 h
same,AUC(0-t),"[6]; both sexes, human, plasma, oral, 60 mg, Treatment A: atogepant 60 mg alone, read-out: AUC0-24",2870 ng·h/mL
same,AUC(0-t),"[6]; both sexes, human, plasma, oral, 60 mg, Treatment A: atogepant 60 mg alone, read-out: AUC0-24 Geometric LSM, Reference",2680 ng·h/mL
same,AUC(0-t),"[6]; both sexes, human, plasma, oral, 60 mg, Treatment A: atogepant 60 mg alone, read-out: AUC0-t",2960 ng·h/mL
same,AUC(0-t),"[6]; both sexes, human, plasma, oral, 60 mg, Treatment A: atogepant 60 mg alone, read-out: AUC0-t Geometric LSM, Reference",2770 ng·h/mL
same,AUC(0-inf),"[6]; both sexes, human, plasma, oral, 60 mg, Treatment A: atogepant 60 mg alone, read-out: AUC0-∞",3000 ng·h/mL
same,AUC(0-inf),"[6]; both sexes, human, plasma, oral, 60 mg, Treatment A: atogepant 60 mg alone, read-out: AUC0-∞ Geometric LSM, Reference",2810 ng·h/mL
same,Cmax,"[6]; both sexes, human, plasma, oral, 60 mg, Treatment A: atogepant 60 mg alone, read-out: Cmax",711 ng/mL
same,Cmax,"[6]; both sexes, human, plasma, oral, 60 mg, Treatment A: atogepant 60 mg alone, read-out: Cmax Geometric LSM, Reference",649 ng/mL
same,Tmax,[6]; [16],1.5 h
same,AUC(0-t),"[6]; both sexes, human, plasma, oral, Treatment B1: atogepant 60 mg + single-dose rifampin 600 mg, read-out: AUC0-24",8130 ng·h/mL
same,AUC(0-t),"[6]; both sexes, human, plasma, oral, Treatment B1: atogepant 60 mg + single-dose rifampin 600 mg, read-out: AUC0-24 Geometric LSM, Test",7630 ng·h/mL
same,Cmax,"[6]; both sexes, human, plasma, oral, Treatment B1: atogepant 60 mg + single-dose rifampin 600 mg, read-out: Cmax",1550 ng/mL
same,Cmax,"[6]; both sexes, human, plasma, oral, Treatment B1: atogepant 60 mg + single-dose rifampin 600 mg, read-out: Cmax Geometric LSM, Test",1440 ng/mL
same,Tmax,"[6]; both sexes, human, plasma, oral, Treatment B1: atogepant 60 mg + single-dose rifampin 600 mg",2 h
same,half-life,[6]; [17],2.39 h
same,AUC(0-t),"[6]; both sexes, human, plasma, oral, Treatment B2: atogepant 60 mg + multiple-dose rifampin 600 mg, read-out: AUC0-t",1180 ng·h/mL
same,AUC(0-t),"[6]; both sexes, human, plasma, oral, Treatment B2: atogepant 60 mg + multiple-dose rifampin 600 mg, read-out: AUC0-t Geometric LSM, Test",1120 ng·h/mL
same,AUC(0-inf),"[6]; both sexes, human, plasma, oral, Treatment B2: atogepant 60 mg + multiple-dose rifampin 600 mg, read-out: AUC0-∞",1130 ng·h/mL
same,AUC(0-inf),"[6]; both sexes, human, plasma, oral, Treatment B2: atogepant 60 mg + multiple-dose rifampin 600 mg, read-out: AUC0-∞ Geometric LSM, Test",1090 ng·h/mL
same,Cmax,"[6]; both sexes, human, plasma, oral, Treatment B2: atogepant 60 mg + multiple-dose rifampin 600 mg, read-out: Cmax",487 ng/mL
same,Cmax,"[6]; both sexes, human, plasma, oral, Treatment B2: atogepant 60 mg + multiple-dose rifampin 600 mg, read-out: Cmax Geometric LSM, Test",454 ng/mL
same,Tmax,[6]; [17],1.5 h
same,Vd/F,[6]; [17],197 L
same,reduction in mean apparent half-life,"[6]; both sexes, human, plasma, oral, atogepant + multiple dose rifampin vs atogepant alone, read-out: reduction of mean apparent T1/2 (converted)",~9 h
same,Vd/F,"[6]; both sexes, human, plasma, oral, Treatment A: atogepant 60 mg alone",390 L
same,"Monthly Headache Days across 12 weeks, difference from placebo",[7]; [18],−1.4
same,"Monthly Headache Days across 12 weeks, mean change from baseline",[7]; [18],−4.3
same,"Monthly Migraine Days (MMD) across 12 weeks, difference from placebo",[7]; [18],−1.1
same,"Monthly Migraine Days (MMD) across 12 weeks, mean change from baseline",[7]; [18],−4.0
same,"Monthly Headache Days across 12 weeks, difference from placebo",[7]; [19],−1.2
same,"Monthly Headache Days across 12 weeks, mean change from baseline",[7]; [19],−4.2
same,"Monthly Migraine Days (MMD) across 12 weeks, difference from placebo",[7]; [19],−0.9
same,"Monthly Migraine Days (MMD) across 12 weeks, mean change from baseline",[7]; [19],−3.8
same,"Monthly Headache Days across 12 weeks, difference from placebo",[7]; [20],−0.9
same,"Monthly Headache Days across 12 weeks, mean change from baseline",[7]; [20],−3.9
same,"Monthly Migraine Days (MMD) across 12 weeks, difference from placebo",[7]; [20],−0.7
same,"Monthly Migraine Days (MMD) across 12 weeks, mean change from baseline",[7]; [20],−3.6
same,mean apparent oral clearance (CL/F),"[8]; human, in vivo, po",approximately 19 L/hr
same,half-life,"[8]; human, plasma, oral, read-out: elimination half-life (converted)",~11 h
same,Vd/F,"[8]; human, plasma, after oral administration, read-out: mean apparent volume distribution (Vz/F)",~282 L
same,accumulation,[8]; once daily dosing,no accumulation
same,dose proportionality,[8]; once daily dosing,dose-proportional pharmacokinetics up to 170 mg
same,inhibition of OCT1,[9],weak inhibitor
